Results reported in patent US20200404916A1, “METHOD OF REDUCING CROP DAMAGE” (BAYER AKTIENGESELLSCHAFT, priority 2018, published 2020).

Tests used:
winter wheat, TRZAW [1] = assay: Post-emergence greenhouse pot test, visual scoring of crop damage on winter wheat; format: in vivo
Text: Post-emergence application was done when the plants had reached growth stage BBCH11 (BBCH is the international coding system for the growth stage of crops and weeds).
The safener (mefenpyr-diethyl) was formulated as wettable powder (WP).
The compounds were sprayed onto the green parts of the plants as an aqueous suspension at an equivalent water application rate of 300 l/ha.
(§1) The combination of herbicide and safener was applied as a tank mix.
(§2) After application, the test plants were kept in the greenhouse under good growth conditions.
(§3) Values in the table below are mean values from at least 3 replicates.
(§4) For the safener seed treatment, sufficient seeds were weighed into screw top glass bottles approximately twice the volume of the seeds.
(§5) The safener (mefenpyr-diethyl, formulated as suspension concentrate (SC)) was weighed out so that the required rates (g a.i./kg seed) would be obtained, dissolved in water (1 ml water per 10 g of seeds), and added to the seeds to produce a slurry.
(§6) The bottles were capped and then placed in an overhead shaker (set at medium speed for up to 1 hour) so that the seeds were evenly coated with the slurry. The bottles were uncapped and the seeds were sown as described above.
(§7) For the seed treatment process, the blind formulation (the SC formulation without the safener mefenpyr-diethyl) was used as seed treatment as described above.
Post-emergence application of the herbicide was done when the plants had reached growth stage BBCH11.
Post-emergence application was done when the plants had reached growth stage BBCH11.

winter wheat, TRZAW [2] = assay: Pre-emergence greenhouse pot test, visual scoring of crop damage on winter wheat; format: in vivo
Experimental: as §4, §5, §6, §7
The compounds were sprayed to the soil surface as an aqueous suspension at an equivalent water application rate of 300 l/ha.
as §1, §2, §3

Compound | % crop damage (winter wheat, TRZAW [1]; herbicide 200 g/ha post-emergence (BBCH11), no safener, 14 days after application, mean of at least 3 replicates) [%] | % crop damage (winter wheat, TRZAW [2]; herbicide 200 g/ha pre-emergence, no safener, 14 days after application, mean of at least 3 replicates) [%] | % crop damage (winter wheat, TRZAW [1]; safener 200 g/ha in tank mix alone, post-emergence (BBCH11), no herbicide, 14 days after application) [%] | % crop damage (winter wheat, TRZAW [1]; safener seed treatment 0.5 g/kg alone, no herbicide, post-emergence test series) [%] | % crop damage (winter wheat, TRZAW [2]; safener 200 g/ha in tank mix alone, pre-emergence, no herbicide, 14 days after application) [%] | % crop damage (winter wheat, TRZAW [2]; safener seed treatment 0.5 g/kg alone, no herbicide, pre-emergence test series) [%]
Diflufenican [Herbicide post-em.] | 20 | 25 | – | – | – | –
CCOC(=O)C1=NN(c2ccc(Cl)cc2Cl)C(C)(C(=O)OCC)C1 (stereo not drawn) [Safener in tank mix, ethyl 1-(2,4-dichlorophenyl)-5-(ethoxycarbonyl)-5-methyl-2-pyrazoline-3-carboxylate] | – | – | 5 | 0 | 5 | 5
